Assay results published in patent US4204003A, “N-(2-Aminocyclopentyl)-N-alkanoylanilides as CNS anti-depressants” (The Upjohn Company, priority 1978, dated 1980).

Experiments:
[1] = rat liver microsome incubation system (metabolism); format: in vitro ADME; details: from the corresponding N-[2-(dimethylamino)cyclopentyl]propionanilide compound
[2] = system: oxotremorine hypothermia; experiment: standard oxotremorine hypothermia antagonism test; format: in vivo; details: ip; intraperitoneally
[3] = system: yohimbine toxicity; experiment: standard yohimbine toxicity potentiation test; format: in vivo; details: ip; intraperitoneally
[4] = literature (J. Pharmaceutical Sciences, December 1974); cited from earlier work
[5] = literature (J. Pharmaceutical Sciences, December 1974); cited from earlier work; remark: listed apart in the source

Compound | ED50 [2] | ED50 [3] | further results
2-(N-methylamino)cyclopentylpropionanilide | – | – | metabolite formed in rat liver microsome incubation [1]: is a metabolite of the corresponding N-[2-(dimethylamino)cyclopentyl]propionanilide compound
CCC(=O)N(c1ccc(Cl)c(Cl)c1)[C@@H]1CCC[C@H]1N (relative stereo) [Trans-3,4-dichloro-N-(2-aminocyclopentyl)-propionanilide] | < 1 mg/kg | < 1 mg/kg | –
CCC(=O)N(c1ccc(Cl)c(Cl)c1)[C@@H]1CCC[C@H]1NC (relative stereo) [Trans-3,4-dichloro-N-[2-(N-methylamino)-cyclopentyl]propionanilide] | < 1 mg/kg | < 1 mg/kg | –
ON(c1ccccc1)C1CCCCC1N1CCCC1 (stereo not shown) [N-[2-(N-pyrrolidinyl)cyclohexyl]-N-phenylhydroxylamine] | – | – | CNS properties [4]: do not have useful CNS properties
COc1ccc(C(O)C2CCCCC2N2CCCCC2)cc1 (stereo not shown) [[2-(N-piperidinylcyclohexyl]-(4-methoxyphenyl)methanol] | – | – | diuretic activity [5]: Diuretic activity is alleged
